Experimental data published in patent US20260345517A1, “DOSAGE REGIMENS FOR TREATING STARGARDT DISEASE” (Alkeus Pharmaceuticals, Inc., priority 2024, published 2026).

How the values were obtained:
[1] = TEASE-3: plasma gildeuretinol (replacement of plasma vitamin A); type: in vivo, human; conditions: 14 mg daily, after the first two months, all three participants
Procedure: The tolerability and effects of gildeuretinol acetate in Stargardt Disease (Clinical trial group 3 also known as TEASE-3) study was an open-label, multicenter, case control study designed to evaluate the efficacy and safety of gildeuretinol acetate on the progression of Stargardt disease in asymptomatic individuals. The trial was conducted at multiple sites in the United States.
To assess the safety and efficacy of gildeuretinol acetate in preventing vision loss in asymptomatic individuals, gildeuretinol acetate 14 mg capsules was administered to individuals showing early signs of retinal damage while maintaining approximately 20/20 vision and no subjective loss of vision. […] Based on the above family history and clinical observations, the individuals were likely to develop retinal lesions, loss of photoreceptors, drops in retinal sensitivity, loss of visual acuity, indicating the onset of symptoms, i.e. a progression to the symptomatic phase, including vision loss within two years, mirroring the progression observed in their older siblings.
Patients received gildeuretinol acetate 14 mg capsules, to be taken orally once daily. Trial visits occurred every 6 months approximately following screening and treatment start visits.

[2] = Open-label multiple dose pharmacokinetic study in healthy volunteers (percentage of deuterated vitamin A in plasma, LC/MS); type: in vivo, human; conditions: fasting
Procedure: Study Design: This was an open-label, non-randomized, multiple dose study in healthy volunteers aged 21 to 70 years of age (inclusion criteria). Subjects who met all entrance criteria at screening were invited to receive the study medication. There were six treatment arms: 2 mg/day, 3.5 mg/day, 5 mg/day, 7 mg/day, 10 mg/day and 14 mg/day gildeuretinol acetate. For the four lower dose groups, the dose regimen was one capsule per day, orally, to be taken at home, preferably in the evening unless a different time was preferred by the subject. For the two highest doses, the dose regimen was two capsules per day, one in the morning and one in the evening, although subjects with a preference to take both capsules at once were offered to do so. After taking the 1st dose at the study site, subjects were invited to return two and four weeks after starting the treatment.
The clinical staff made periodic calls to monitor adverse events and ensure subject compliance. In addition, a text message was sent daily to remind subjects to take their medication. Subjects were instructed to avoid foods that contain large amounts of vitamin A (such as liver-based products), including supplements containing vitamin A, and to report their vitamin A intake by answering a daily text message diary. Fruits and vegetables were permitted without restriction.
Deuterated retinol (gildeuretinol) (“D3”) and non-deuterated retinol (“Do”) and other vitamin A metabolites were measured to calculate the percentage of deuterated vitamin A in plasma. For all treatment groups, plasma samples were collected at baseline, 14±1 days (“2 weeks”) and 28±1 days (“4 weeks”) after initiation of treatment. Blood samples were usually collected following at least 10 hours of fasting (including last gildeuretinol acetate intake), preferably in the morning. For the 7 mg/day and the 14 mg/day groups only, after the first and last dose, blood samples were collected every 4 hours for 24 hours. A liquid chromatography/mass spectrometry assay was used to measure the metabolite levels.
Table 2 provides % D3 Retinol (gildeuretinol, i.e. the percentage of deuterated retinol (gildeuretinol) over total retinol (as deuterated+non-deuterated) in plasma measured 12-24 hours following gildeuretinol acetate intake.
Pharmacokinetic Results (integrated levels over 24 hours post dosing): total vitamin A in plasma, both deuterated (gildeuretinol) and non-deuterated (retinol), was measured every 4 hours following administration of 7 mg or 14 mg at the first dose, and following administration of the 28th dose (4 weeks of daily treatment). The area under the curve (AUC) was calculated and the % deuterated % D3 of total vitamin A (as retinol and gildeuretinol) was computed as an average over 24 hours.

Which “replacement of plasma vitamin A (retinol + gildeuretinol) with gildeuretinol” value [1] does the source give for `CC1=C(/C=C/C(C)=C/C=C/C(C)=C/CO)C(C)(C)CCC1` [gildeuretinol, C20D3-retinol] here?
The value was 80%.

What about the “% gildeuretinol over retinol + gildeuretinol in plasma” value (“% gildeuretinol” for short) ([2]; 2 mg/day, after 2 weeks of treatment) of the same compound?
Its value is 27%.

And the “% gildeuretinol” value ([2]; 2 mg/day, after 4 weeks of treatment)?
Its value is 31%.

What about the “% gildeuretinol” value ([2]; 3.5 mg/day, after 2 weeks of treatment) of the same compound?
Its value is 39%.

And the “% gildeuretinol” value ([2]; 3.5 mg/day, after 4 weeks of treatment)?
Its value is 46%.

What about the “% gildeuretinol” value ([2]; 5 mg/day, after 2 weeks of treatment) of the same compound?
The value was 53%.

And the “% gildeuretinol” value ([2]; 5 mg/day, after 4 weeks of treatment)?
The value was 51%.

What about the “% gildeuretinol” value ([2]; 7 mg/day, 24 hours post 1st dose) of the same compound?
The value was 27%.

What about the “% gildeuretinol” value ([2]; 7 mg/day, after 2 weeks of treatment) of the same compound?
The value was 55%.

What about the “% gildeuretinol” value ([2]; 7 mg/day, after 4 weeks of treatment) of the same compound?
The value was 63%.

What about the “% gildeuretinol” value ([2]; 10 mg/day, after 2 weeks of treatment) of the same compound?
The value was 66%.

And the “% gildeuretinol” value ([2]; 10 mg/day, after 4 weeks of treatment)?
Its value is 72%.

And the “% gildeuretinol” value ([2]; 14 mg/day, 24 hours post 1st dose)?
Its value is 41%.

And the “% gildeuretinol” value ([2]; 14 mg/day, after 2 weeks of treatment)?
Its value is 64%.

What about the “% gildeuretinol” value ([2]; 14 mg/day, after 4 weeks of treatment) of the same compound?
Its value is 79%.
